The target in one data set is T1, Aβ42 (Homo sapiens, UniProt P05067).
T1 construct: Cleavage of APP results in several Aβ isoforms; The predominant species are Aβ42 and Aβ40; purchased Anaspec (Fremont, Calif., USA)
Kind of data set: Transmission electron microscopy (TEM) of Aβ42. The class given is biochemical. Conditions: for Aβ42 oligomers seen by TEM after addition to preformed oligomers: 5 μM Aβ42, compound added to preformed oligomers (2 h), equimolar. As for the experimental part:
Aβ42 (5 μM) was incubated in phosphate buffer in the absence and presence of the compounds of the invention at various time intervals and stoichiometric ratios. Aliquots of these samples were then applied to glow-discharged carbon-coated 300-mesh copper grids for 2 min and dried. Grids were negatively stained with uranyl acetate (2%, w/v) and dried. Micrographs of grids were examined on a Phillips CM12 Cryoelectron Microscope equipped with Gatan 4k×2.7k CCD camera at 120-kV accelerating voltage.

Data set [1] has as its system Aβ42 mediated toxicity in mouse neuroblastoma (N2a) cells. Kind of data set: Aβ42 mediated toxicity in Neuro-2a cells (MTS cell viability). Conditions: for cell viability: 5 μM Aβ42, equimolar ratio, 72 h; for effect on Aβ42 mediated cytotoxicity: equimolar ratio, Neuro-2a cells. The class given is cell-based. As for the experimental part: Cell viability was determined using a CellTiter 96® AQueous One Solution Cell Proliferation Assay (MTS) kit (Promega), which measures the reduction of the tetrazolium compound MTS (3-(4,5-dimethylthiazol-2-yl)-5-(3-carboxymethoxyphenyl)-2-(4-sulfophenyl)-2H-tetrazolium, inner salt) to soluble formazan by mitochondrial dehydrogenase enzyme in living cells. Formazan can be measured at 490 nm according to the manufacturer's instructions.
Neuro-2a cells (ATCC® […]) were maintained in serum-containing media [Dulbecco's Modified Eagle's Medium—high glucose (DMEM, Sigma) supplemented with 10% foetal bovine serum (FBS), 4 mM L-Glutamine (Sigma), and 1% penicillin/streptomycin (Sigma)] in 5% CO2 at 37° C. Once the cells reached ˜95% confluence, they were split (using 0.25% trypsin-EDTA, Sigma, St. Louis, USA), seeded at a density of 5×10^3 cells/well in 100 μL complete medium in 96-well plates and cultured for 48 h. Thereafter, the media was removed, the cells washed with phosphate buffered saline (PBS), and 90 μL of serum-free DMEM was added to the wells. A solution (A) containing 50 μM Aβ42 in NaOH (pH 10.5) was prepared and kept on ice, and a solution (B) containing 50 μM of the oligopyridylamide compound, H2O (2.33 μL/well) and 1× and 10×PBS was prepared and kept at room temperature. The solutions were combined, vortexed and 10 μL of this solution immeadiatly added to each well. The final concentrations in the wells were: 5 μM Aβ42, 5 μM oligopyridylamide, 200 μM NaOH, 0.1×PBS and 0.5% (v/v) DMSO.
(§1) To investigate the toxic effect of the peptide alone on cell viability, solution (B) without the oligopyridylamide compound was mixed with solution (A), while the effect of the oligopyridylamide compound alone was determined by adding solution (A) without peptide to solution (B). The effect of oligopyridylamides on seed-catalyzed Aβ42 aggregation was probed by preparing an additional solution (C) containing 0.5 μM seeds. The volume contributed by solution (C) was taken into account in preparing solution (B). Solution (C) was mixed with solution (B), and the resulting mixture was then added to solution (A) shortly before addition to the wells. To study the effect of oligopyridylamides on the oligomeric states of Aβ42, solution (A) was mixed with solution (B) without inhibitor and incubated at room temperature for 1, 2 or 3 h. Subsequently, 50 μM oligopyridylamides was added to the mixture, which was then immediately added to the cells. After culturing for 72 h in 5% CO2 at 37° C., 20 μL of MTS reagent was added to each well. The MTS reagent was incubated for 2.5 h at 37° C., and absorbance of the soluble formazan product (λ=490 nm) of MTS reduction was measured on a Synergy H1MF Multi-Mode microplate-reader (BioTek, Winooski, Vt., USA), with a reference wavelength of 650 nm to subtract the background. Wells treated with a solution containing serum-free DMEM, 200 μM NaOH, 0.1×PBS and 0.5% (v/v) DMSO served as control. MTS reduction was determined from the ratio of the absorbance of the treated wells to the control wells. Each data point represents an average of four independent quadruplet-well trials.

The next data set has as its system Neuro-2a cells. Kind of data set: Effect of compound alone on Neuro-2a cell viability. The class given is cell-based, mouse. As to conditions: for toxicity of compound alone to Neuro-2a cells: matched cytotoxic experimental conditions, no Aβ42. Here is the method:
as §1, with “After culturing for 72 h in 5% CO2 at 37° C., 20 μL of MTS reagent was added to each well.” left out

[2] abbreviates: compound added to 5 μM Aβ42 after 1 h from start of amyloid reaction, Aβ42 alone 46%.
Where [3] appears, read: compound added to 5 μM Aβ42 after 2 h from start of amyloid reaction, Aβ42 alone 57%.
Setting [4] is: compound added to 5 μM Aβ42 after 3 h from start of amyloid reaction, Aβ42 alone 62%.

“Also recorded” adds a separate entry of the source.

T1 sequence (P05067 672-713 limits assumed): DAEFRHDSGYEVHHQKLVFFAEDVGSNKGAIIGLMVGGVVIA

Turning to `COC(=O)c1ccc(NC(=O)c2ccc(NC(=O)c3ccc(NC(=O)c4ccc([N+](=O)[O-])c(OCC(C)C)n4)c(OCc4ccccc4)n3)c(OCC(=O)O)n2)c(OCC(=O)O)n1` [ADH-31], the “Aβ42 oligomers seen by TEM after addition to preformed oligomers” value on Aβ42 was “No formation of Aβ42 oligomers”. Moreover, at Aβ42 (5 μM Aβ42, equimolar ratio, after 12 h), the “fibers of Aβ42 seen by TEM” value is given as “no fibers were recorded”. Moreover, the cell viability in data set [1] is on record as 97%±1%. The “cell viability, preformed Aβ42 oligomers” value in data set [1] (setting [2]) is listed as 90%; in data set [1] (setting [3]), 89%; in data set [1] (setting [4]), 95%. In addition, the “effect on Aβ42 mediated cytotoxicity” value in data set [1] is given as “effective at rescuing cells”. Further, in the data set on Neuro-2a cells, the “toxicity of compound alone to Neuro-2a cells” value is listed as “not toxic”.

For the molecule `COC(=O)c1ccc(NC(=O)c2ccc(NC(=O)c3ccc([N+](=O)[O-])c(OCc4ccccc4)n3)c(OCCCN)n2)c(OCCCN)n1` [ADH-41], on Aβ42 (5 μM Aβ42, 1:0.1 (Aβ42:ADH-41), 24 h), the “fibers of Aβ42 seen by TEM” value is “sparse population of fibers”. Besides, the “oligomers/fibers of Aβ42 seen by TEM” value on Aβ42 (5 μM Aβ42, 1:1 or 1:0.5 (Aβ42:ADH-41), even after 2 days) is on record as “no formation of oligomers/fibers”. For the same molecule, the “Aβ42 oligomers seen by TEM after addition to preformed oligomers” value at Aβ42 is recorded as “No formation of Aβ42 oligomers”. Besides, the “elongated fibers seen by TEM in seed-catalyzed Aβ42 aggregation” value at Aβ42 (20 μM Aβ42 + seeds, equimolar ratio, 24 h) is “no elongated fibers were observed”. Besides, the cell viability in data set [1] amounted to 98±2%. The “rank order for the antagonist activity” value in data set [1] (Aβ42 mediated cytotoxicity and aggregation, 5 μM, 1:1 (FIG. 26a)) is “ADH41>ADH46>ADM-40≥ADM-45A”. For the same molecule, the “cell viability, preformed Aβ42 oligomers” value is on record as 72% in data set [1] (setting [2]), 68% in data set [1] (setting [3]) and 67% in data set [1] (setting [4]). Further, the “effect on Aβ42 mediated cytotoxicity” value in data set [1] is listed as “completely inhibited; also recorded: effective at rescuing cells; also recorded: equally effective; also recorded: completely rescues”. Moreover, the “cell viability, compound alone” value in the data set with Neuro-2a cells (4 μM ADH-41 + 1 μM ADH-41F, N2a cells, 24 h) is 98%. Besides, the “toxicity of compound alone to Neuro-2a cells” value in the data set on Neuro-2a cells is on record as “not toxic”.

Source of the values: US10723716B2, “Alpha-helix mimetics as modulators of Abeta self-assembly” (New York University, priority 2016, dated 2020).
